Laboratory results reported in publication PMC7004151, “Synthesis and Structure‐Activity Relationships of N‐(4‐Benzamidino)‐Oxazolidinones: Potent and Selective Inhibitors of Kallikrein‐Related Peptidase 6” (Chemmedchem, 2019).
Read-outs that look alike come from different tables or passages of the source. Each block holds one molecule with its values, some of them ahead of it.

Key:
KLK6 [1] = target: T1, KLK6 (Homo sapiens, UniProt Q92876); experiment: SPR binding assay (Biacore T200, KLK6 immobilized on CM5 chip); conditions: read-out: KLK6 pKD (converted)
Protocol: High Throughput Screen: The European Lead Factory library of ∼350,000 compounds was used for high throughput screening at the Pivot Park Screening Center facilities in Oss, The Netherlands. HighRes Biosolutions robotic infrastructure using Cellario software was programmed to perform screening of 281 1536‐well plates. Using the primary KLK6 fluorescent intensity (FI) assay (see below), 7794 compounds having a Z‐score≤‐4 were selected for further follow‐up. An additional set of compounds was added based on Bayesian modeling to include potential false negatives in the hit confirmation. […] Upon testing of these compounds using SPR and LC‐MS, a qualified hit list (QHL) was registered containing 50 compounds. For SPR, Biacore T200 was used and KLK6 was immobilized onto a CM5 chip. 226 test compounds were screened at 4 concentrations: 20, 4, 0.8 and 0.16 μM in running buffer: 50 mM Tris‐HCl, 1 mM EDTA pH 7.5, 150 mM NaCl, 0.05 % Tween 20, 3 % DMSO at 25 °C. Control injections of 5 μM 1 were used throughout the screen to ensure that KLK6 was stable and had not been blocked by potential irreversible binders/denaturants. An 8 point 1 in 3 dilution series of 1 (50 μM to 0.02 μM) was also applied at the beginning and end of each screening day.

KLK6 [2] = target: T1, KLK6; experiment: KLK6 enzymatic inhibition assay (fluorogenic Boc-Phe-Ser-Arg-AMC substrate); type: biochemical; design: made in house; conditions: for IC50: read-out: KLK6 pIC50 (converted)
Protocol: Using our previously published KLK6 assay format,21 we performed a HTS with the European Lead Factory (ELF),22 and tested ∼350,000 substances at 10 μM for their ability to reduce KLK6‐catalyzed hydrolysis of the fluorogenic Boc‐Phe‐Ser‐Arg‐AMC peptide.
High Throughput Screen: The European Lead Factory library of ∼350,000 compounds was used for high throughput screening at the Pivot Park Screening Center facilities in Oss, The Netherlands. […] For SPR, Biacore T200 was used and KLK6 was immobilized onto a CM5 chip. […] An 8 point 1 in 3 dilution series of 1 (50 μM to 0.02 μM) was also applied at the beginning and end of each screening day.
Enzyme inhibition assays: All chemicals were purchased from Sigma Aldrich (Gillingham, UK) unless otherwise stated.

KLK4 = KLK4 (Homo sapiens, UniProt Q9Y5K2); experiment: KLK4 inhibition (selectivity); type: biochemical; conditions: read-out: KLK4 pIC50 (converted)
Sequence of KLK4 (Q9Y5K2 31-254, species assumed): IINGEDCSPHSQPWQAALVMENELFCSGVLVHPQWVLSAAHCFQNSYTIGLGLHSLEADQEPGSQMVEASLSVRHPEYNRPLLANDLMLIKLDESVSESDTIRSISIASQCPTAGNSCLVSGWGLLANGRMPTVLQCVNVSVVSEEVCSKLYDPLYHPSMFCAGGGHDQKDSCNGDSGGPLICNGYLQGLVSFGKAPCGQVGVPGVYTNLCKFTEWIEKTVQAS
Description: Table 3 Activity of synthesized inhibitors against KLK6 and related proteases. | column: KLK4^a

KLK7 = target: T2, KLK7 (Homo sapiens, UniProt P49862); experiment: KLK7 enzyme inhibition assay; type: biochemical; conditions: read-out: KLK7 pIC50 (converted)
T2 construct: purchased 2B scientific
T2 sequence (P49862 30-253, species assumed): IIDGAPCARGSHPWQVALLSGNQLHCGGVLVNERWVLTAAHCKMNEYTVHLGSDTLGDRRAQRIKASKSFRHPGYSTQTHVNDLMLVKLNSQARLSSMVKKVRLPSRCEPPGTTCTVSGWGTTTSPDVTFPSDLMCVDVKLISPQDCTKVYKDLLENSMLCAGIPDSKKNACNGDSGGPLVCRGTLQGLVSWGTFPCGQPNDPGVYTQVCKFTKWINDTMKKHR
Protocol: (§1) Enzyme inhibition assays: All chemicals were purchased from Sigma Aldrich (Gillingham, UK) unless otherwise stated. All experiments were conducted in 384 well black, low volume microplates (Greiner 784076) with a final volume of 20 μL and compounds were dispensed into assay plates using an ECHO 550 acoustic dispenser (Labcyte). KLK6 (5 nM) (prepared as in ref. 21) was incubated with test compounds for 30 min at room temperature in assay buffer (50 mM Tris, pH 7.5, 150 mM NaCl, 1 mM EDTA, 0.05 % tween 20, 0.1 % bovine serum albumin (BSA), 1 mM dithiothreitol (DTT)) before the reaction was started by addition of 20 μM Boc‐Phe‐Ser‐Arg‐AMC substrate (Bachem). Fluorescence intensity was read at ex/em 355/460 following incubation for 2 h in the dark at room temperature.
(§2) Assays using KLK7 and KLK8 (2B scientific) were conducted in the same manner as for KLK6 with the following exceptions. Both KLK7 and KLK8 required activation before assaying. KLK7 was combined with an equal volume of 20 μg/ml thermolysin (R&D systems) in activation buffer (50 mM Tris, pH 7.5, 10 mM CaCl2, 150 mM NaCl and 0.05 % Brij‐L23) and incubated at 37 °C for 2 h, the reaction was stopped with the addition of 100 mM EDTA in stop solution (50 mM Tris, 150 mM NaCl, pH 8.5). KLK8 was combined with an equal volume of 0.4 mU/mL lysyl endopeptidase (Alpha laboratories) in activation buffer (50 mM Tris, pH 8.0) and incubated at 37 °C for 30 min. Activated KLK7 (40 nM) and KLK8 (25 nM) were assayed with 40 μM Mca‐RPKPVE‐Nval‐WRK(Dnp)‐NH2 fluorogenic MMP substrate (R&D systems) and 25 μM Boc‐V‐P‐R‐AMC substrate (R&D systems), respectively.

KLK8 = target: T3, KLK8 (Homo sapiens, UniProt O60259); experiment: KLK8 enzyme inhibition assay; type: biochemical; conditions: read-out: KLK8 pIC50 (converted)
T3 construct: purchased 2B scientific
T3 sequence (O60259 33-260): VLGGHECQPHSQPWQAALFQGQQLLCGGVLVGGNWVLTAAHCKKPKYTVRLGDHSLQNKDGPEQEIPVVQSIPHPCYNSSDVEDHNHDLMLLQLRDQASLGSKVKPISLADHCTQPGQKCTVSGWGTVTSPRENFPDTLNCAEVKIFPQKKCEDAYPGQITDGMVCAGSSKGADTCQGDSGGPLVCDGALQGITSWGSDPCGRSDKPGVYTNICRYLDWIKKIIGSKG
Protocol: as §1, §2

Human trypsin = target: T4, Human trypsin (Homo sapiens, UniProt P07477); experiment: Trypsin enzyme inhibition assay; type: biochemical; conditions: read-out: Trypsin pIC50 (converted)
T4 construct: purchased Polymun Scientific
Protocol: Human thrombin was purchased from Biopur. Human trypsin was purchased from Polymun Scientific. Human Factor Xa was purchased from Enzo Life Sciences. […] Fluorescence intensity was then read at ex/em 485/535 following incubation for 1 h at room temperature (thrombin and factor Xa) or 20 min (trypsin).

Human thrombin = target: T5, Human thrombin (Homo sapiens, UniProt P00734); experiment: Thrombin enzyme inhibition assay; type: biochemical; conditions: read-out: Thrombin pIC50 (converted)
T5 construct: Human thrombin was purchased from Biopur; purchased Biopur
Protocol: (§3) Human thrombin was purchased from Biopur. Human trypsin was purchased from Polymun Scientific. Human Factor Xa was purchased from Enzo Life Sciences. Thrombin (20 nM), trypsin (0.000015 %) or Factor Xa (10 nM) were assayed in a similar manner to the KLKs but were incubated with compound for 20 min at room temperature in assay buffer (50 mM Tris HCl, pH 7.6, 100 mM NaCl, 1 mg/ml CHAPS, 0.05 % bovine serum albumin (BSA), 1 mM dithiothreitol (DTT)) before the addition of 5 μM, 2.5 μM or 1.5 μM Rhodamine 110 substrate (Cambridge bioscience ltd) respectively. Fluorescence intensity was then read at ex/em 485/535 following incubation for 1 h at room temperature (thrombin and factor Xa) or 20 min (trypsin).

Human Factor Xa = target: T6, Human Factor Xa (Homo sapiens, UniProt P00742); experiment: Factor Xa enzyme inhibition assay; type: biochemical; conditions: read-out: Factor Xa pIC50 (converted)
T6 construct: Human Factor Xa was purchased from Enzo Life Sciences; purchased Enzo Life Sciences
T6 sequence (P00742 235-488 limits assumed): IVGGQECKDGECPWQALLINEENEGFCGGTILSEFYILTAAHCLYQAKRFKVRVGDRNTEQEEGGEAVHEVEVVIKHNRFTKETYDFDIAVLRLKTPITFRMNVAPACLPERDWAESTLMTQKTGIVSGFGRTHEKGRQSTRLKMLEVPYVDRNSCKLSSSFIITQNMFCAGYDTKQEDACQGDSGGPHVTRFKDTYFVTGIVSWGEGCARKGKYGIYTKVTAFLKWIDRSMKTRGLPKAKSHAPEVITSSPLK
T6 sequence (P00742 41-179 partner limits assumed): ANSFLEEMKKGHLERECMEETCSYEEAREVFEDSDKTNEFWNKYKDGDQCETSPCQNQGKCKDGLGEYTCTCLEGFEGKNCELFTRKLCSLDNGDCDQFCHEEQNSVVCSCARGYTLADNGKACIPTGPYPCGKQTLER
Protocol: as §3

KLK6 [3] = conditions: cited from earlier work
HCT116 cells [4] = experiment: HCT116 Matrigel invasion assay; type: cell-based; conditions: after 24 h; 9 at multiple concentrations; 32 at 50 nM and 500 nM
Protocol: Figure 5 HCT116 cells were treated with 9 or 32 at the indicated concentrations and plated on Matrigel®‐coated filters. The upper chamber contained serum‐free medium, while the lower chamber contained 10 % fetal bovine serum. After 24 h, the number of invading cells was measured optically. (A) This figure is one representative example of four biological replicates, each with similar outcomes. Error bars are SEM. Technical replicates: DMSO and 9 at 5 nM (n=3); 9 at 50 and 500 nM and 32 at all concentrations (n=6). Statistical significance was calculated using an unpaired two‐tailed t‐test. n.s=p≥0.05; **=p<0.01; ***=p<0.001. (B) Representative images (Scale bar, […]) of stained invaded cells outside of the inserts 24 h hours after treatment with 9, 32, or DMSO solvent control at the indicated concentrations. Phase contrast images were taken with EVOS FL Cell imagine system FL Auto microscope (Bio‐Rad).
Invasion assay: The HCT116 colorectal adenocarcinoma cell line (ATCC® CCL‐247™) was maintained in Dulbecco's Modified Eagle Medium (DMEM) with […] glucose, L‐glutamine w/o sodium pyruvate, supplemented with 10 % FBS and 1 % penicillin/streptomycin. […] The samples were transferred to a new 96 well plate and read at 560 nm on a Synergy 2 Multi‐Detection Microplate Reader (Bio‐Tek Instruments, Inc., Winooski, VT).

HCT116 cells [5] = experiment: HCT116 cell growth and viability; type: cell-based; conditions: at the tested concentrations (data not shown)
Description: We have previously shown that knockdown of KLK6 reduces migration and invasion of HCT116 cells in vitro.13 In order to test whether this effect could be recapitulated with small molecule KLK6 inhibitors, we measured the ability of 32 to reduce invasion of HCT116 cells. […] HCT116 cell growth and viability was not altered upon treatment with compounds 9 and 32 at the tested concentrations (data not shown).

[6] = HTS library sample, primary dose-response enzymatic inhibition assay
[7] = resynthesized stereoisomers, enzymatic inhibition assay (Table 2)
[8] = synthesized inhibitors (Table 3), 8.6 = assay limit

Compound: CCN(CC)C(=O)c1cccc(OCC2CN(c3ccc(C(=N)N)cc3)C(=O)O2)c1 (stereo not drawn) [Compound 8]
Kd (KLK6 [1]): 7.94 µM
IC50 (KLK6 [2]; [6]): 7.94 µM

Compound: COc1cccc([C@H](C)NC(=O)[C@H]2CN(c3ccc(C(=N)N)cc3)C(=O)O2)c1 [Compound 5, (5R)‐3‐(4‐carbamimidoylphenyl)‐N‐[(S)‐1‐(3‐methoxyphenyl)ethyl]‐2‐oxooxazolidine‐5‐carboxamide]
Kd (KLK6 [1]): 0.1 µM
IC50 (KLK4): 7.94 µM
IC50 (KLK7): > 20 µM
IC50 (KLK8): 10 µM
IC50 (Human trypsin): 5.01 µM
IC50 (Human thrombin): > 20 µM
IC50 (Human Factor Xa): > 20 µM
IC50 (KLK6 [2]; [6]): 0.0631 µM
LipE (KLK6 [2]; LipE=pIC50 – logP (KLK6 pIC50, ALogP)): 4.79
IC50 (KLK6 [2]; [7]): 0.251 µM
IC50 (KLK6 [2]; [8]): 0.251 µM

Compound: NCc1ccc(NC(=O)c2c([O-])ccc[n+]2Cc2nccn2Cc2ccccc2)cc1 [Compound 1]
IC50 (KLK6 [3]; published KLK6 inhibitors ref 18): 1.8 µM

Compound: O=C(Oc1cc(Cl)ccc1Cl)c1cc2cc(Cl)ccc2oc1=O [Compound 4]
kinact/Ki (KLK6 [3]; covalent coumarin-based suicide inhibitor ref 20): 131 ± 13 M⁻¹ s⁻¹

Compound: N=C(N)c1ccc(N2CC(CC(=O)NCc3ccccc3C(F)(F)F)OC2=O)cc1 (stereo not drawn) [Compound 6]
Kd (KLK6 [1]): 12.6 µM
IC50 (KLK6 [2]; [6]): 10 µM

More lines, main results first:

Kd (KLK6 [1]): 20 µM
IC50 (KLK6 [2]; [6]): 1.58 µM
Compound: CCOC(=O)C[S+]([O-])CC1CN(c2ccc(C(=N)N)cc2)C(=O)O1 (stereo not drawn) [Compound 7]

IC50 (KLK6 [2]; [7]): > 20 µM
Compound: COc1cccc([C@@H](C)NC(=O)[C@@H]2CN(c3ccc(C(=N)N)cc3)C(=O)O2)c1 [Compound 9]
invasion of HCT116 cells (HCT116 cells [4]): no significant effect
HCT116 cell growth and viability (HCT116 cells [5]): not altered

IC50 (KLK4): 3.16 µM
IC50 (KLK7): > 20 µM
IC50 (KLK8): 10 µM
IC50 (Human trypsin): 3.98 µM
IC50 (Human thrombin): > 20 µM
IC50 (Human Factor Xa): > 20 µM
KLK6 potency loss (KLK6 [2]; relative to 29): 10 fold
IC50 (KLK6 [2]; [8]): 0.1 µM
Compound: C[C@H](NC(=O)[C@H]1CN(c2ccc(C(=N)N)cc2)C(=O)O1)c1ccc2ccccc2c1 [Compound 30, (5R)‐3‐(4‐carbamimidoylphenyl)‐N‐[(1S)‐1‐(2‐naphthyl)ethyl]‐2‐oxo‐oxazolidine‐5‐carboxamide]
